Target: T1, SOS1-mediated exchange of KRAS-4B:GDP to KRAS-4B:GTP (Homo sapiens, UniProt Q07889)
T1 construct: SOS1 (Cytoskeleton Inc., Cat. CS-GE02); purchased Cytoskeleton Inc. CS-GE02 (SOS1); CSRS03 (KRAS4-B)
T1 sequence (Q07889 564-1049 limits assumed): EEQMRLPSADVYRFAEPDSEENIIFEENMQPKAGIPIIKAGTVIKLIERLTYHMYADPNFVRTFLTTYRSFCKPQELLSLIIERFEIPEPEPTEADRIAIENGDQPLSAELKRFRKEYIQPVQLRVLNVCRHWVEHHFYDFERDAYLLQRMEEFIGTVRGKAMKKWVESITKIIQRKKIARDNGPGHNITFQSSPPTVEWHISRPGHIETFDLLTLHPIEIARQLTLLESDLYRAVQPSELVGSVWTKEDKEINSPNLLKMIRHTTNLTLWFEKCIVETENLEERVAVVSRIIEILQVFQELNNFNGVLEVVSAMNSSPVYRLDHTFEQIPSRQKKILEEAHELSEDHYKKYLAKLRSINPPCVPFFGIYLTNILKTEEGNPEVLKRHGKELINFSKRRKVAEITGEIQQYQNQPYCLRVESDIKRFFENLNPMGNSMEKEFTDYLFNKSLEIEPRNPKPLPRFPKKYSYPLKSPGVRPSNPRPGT
Assay: Bodipy-FL-GTP Association Assay
Format: biochemical
Conditions: SOS1 GEF activity on KRAS-4B, 22° C.
Protocol: A low IC50 value for a given compound is indicative of high potency of said compound in inhibiting the guanine nucleotide exchange factor (GEF) activity of SOS1 on KRAS-4B in this assay setting. Reagents: BODIPY FL GTP (ThermoFisher Scientific, Cat. G12411); KRAS4-B (Cytoskeleton Inc., Cat. CSRS03); SOS1 (Cytoskeleton Inc., Cat. CS-GE02); 2× Assay Buffer: 40 mM Tris-HCl, pH 7.5; 100 mM NaCl; 20 mM MgCl2; 0.1 mg/mL BSA; 0.02% NP-40 Assay Procedure: Test compounds were dissolved in DMSO to create 20 mM master stocks. The stocks were diluted in a 3× dilution series in 100% DMSO to achieve 100× compound stocks. A 1 μl spot of each test compound stock was delivered to two adjacent wells of a 96-well assay plate prior to running the assay. Reaction Mix preparation: The following were mixed in order at room temperature to obtain the “Reaction Mix” (5.75 mL 2× Exchange Buffer; 3.22 mL MilliQ ddH2O; 3 μL 5 mM BODIPY FL GTP; 230 μL 50 μM KRAS-4B; 9.203 mL Total volume. Reaction initiation: 80 μL of Reaction Mix was pipetted into each well of a half-area black 96-well plate (Corning, Cat. 3686) containing either a 1 μL spot of DMSO or a 1 μL spot test compound at the concentrations listed above. 20 μL of 1 μM SOS1 was then added to each well to initiate the reaction. For the no GEF control wells this was replaced with 1× exchange buffer. Kinetic measurement: The reaction was monitored in a SpectraMax M2 Microplate Reader (Molecular Devices) under the following protocol: 5 second rapid circular mixing before first read; 61 readings, 30 seconds apart; Assay temperature: 22° C.; Excitation wavelength: 485 nm; Emission wavelength: 513 nm. Data Analysis: The V max values for the SOS1-mediated BODIPY FL GTP exchange curves in the presence of test compounds were normalized to the most dilute test sample columns or DMSO only control wells to give the % Activity for each concentration of test compound. Plots of % Activity vs. the Log10 of the compound concentration were fit by non-linear regression to a 4-parameter logistic model.

Structure (SMILES) | IC50
Cc1nc(N[C@H](C)c2cccc(C(F)(F)F)c2)c2sc([C@]3(O)CC[C@@H](O)CC3)cc2n1 [Example 5, trans-1-(2-methyl-4-{[(1R)-1-[3-(trifluoromethyl)phenyl]ethyl]amino}thieno[3,2-d]pyrimidin-6-yl) cyclohexane-1,4-diol] | > 5 µM
C[C@@H](Nc1ncnc2cc(C3=CCNCC3)sc12)c1cc(N)cc(C(F)(F)F)c1 [Example 9, N-[(1R)-1-[3-amino-5-(trifluoromethyl)phenyl]ethyl]-6-(1,2,3,6-tetrahydropyridin-4-yl)thieno[3,2-d]pyrimidin-4-amine] | < 1 µM
CC(=O)N1CC=C(c2cc3c(N[C@H](C)c4cccc(C(F)(F)F)c4)ncnn3c2)CC1 [Example 15] | > 5 µM
C[C@@H](Nc1ncnn2cc(C(=O)N3CCOCC3)cc12)c1cc(N)cc(C(F)(F)F)c1 [Example 16] | > 5 µM
C[C@@H](Nc1nccn2cc(C(=O)NC[C@H]3CCOC3)nc12)c1cccc(C(F)(F)F)c1 [Example 17] | > 5 µM
C[C@@H](Nc1nccn2cc(C(=O)N3CCN(C)CC3)nc12)c1cccc(C(F)(F)F)c1 [Example 18] | > 5 µM
Cc1nc(N[C@H](C)c2cccc(C(F)(F)F)c2)c2cc(C3=CCNCC3)cn2n1 [Example 19] | > 5 µM
C[C@@H](Nc1nc(C2CC2)nn2cc(C3=CCNCC3)cc12)c1cccc(C(F)(F)F)c1 [Example 20] | > 5 µM
COCC(=O)N1CC=C(c2cnc3c(N[C@H](C)c4cccc(C(F)(F)F)c4)nccn23)CC1 [Example 22] | > 5 µM
Cc1cn2nc(C(=O)N3CCOCC3)cc2c(N[C@H](C)c2cccc(C(F)(F)F)c2)n1 [Example 24] | > 5 µM
Cc1cn2nc(C(=O)N3CCN(C)CC3)cc2c(N[C@H](C)c2cccc(C(F)(F)F)c2)n1 [Example 25] | > 5 µM
Cc1nc(N[C@H](C)c2cc(N)cc(C(F)(F)F)c2)c2cc(C3=CCNCC3)sc2n1 [Example 26] | 1 to 5 µM
CC(=O)N1CCN(c2cc3c(N[C@H](C)c4cccc(C(F)(F)F)c4)ncnn3c2)CC1 [Example 27] | < 1 µM

Second part, the compound after the results:

IC50 | Structure (SMILES)
1 to 5 µM | Cc1nc(N[C@H](C)c2cccc(C(F)(F)F)c2)c2sc([C@]3(O)CC[C@H](O)CC3)cc2n1 [Example 6, cis-1-(2-methyl-4-{[(1R)-1-[3-(trifluoromethyl)phenyl]ethyl]amino}thieno[3,2-d]pyrimidin-6-yl)cyclohexane-1,4-diol]
< 1 µM | C[C@@H](Nc1ncnc2sc(C3(O)CCC(O)CC3)cc12)c1cc(N)cc(C(F)(F)F)c1 (stereo partly drawn) [Example 7, 1-(4-{[(1R)-1-[3-amino-5-(trifluoromethyl)phenyl]ethyl]amino}thieno[2,3-d]pyrimidin-6-yl)cyclohexane-1,4-diol]
1 to 5 µM | C[C@@H](Nc1nccn2cc(C(=O)N3CCN(C)CC3)nc12)c1cc(N)cc(C(F)(F)F)c1 [Example 10, N-[(1R)-1-[3-amino-5-(trifluoromethyl)phenyl]ethyl]-2-(4-methylpiperazine-1-carbonyl)imidazo[1,2-a]pyrazin-8-amine]
< 1 µM | C[C@@H](Nc1ncnn2cc(C3CCNCC3)cc12)c1cc(N)cc(C(F)(F)F)c1 [Example 11, N-[(1R)-1-[3-amino-5-(trifluoromethyl)phenyl]ethyl]-6-(piperidin-4-yl)pyrrolo[2,1-f][1,2,4]triazin-4-amine]
< 1 µM | C[C@@H](Nc1ncnn2cc(C3=CCNCC3)cc12)c1cc(N)cc(C(F)(F)F)c1 [Example 12, N-[(1R)-1-[3-amino-5-(trifluoromethyl)phenyl]ethyl]-6-(1,2,3,6-tetrahydropyridin-4-yl)pyrrolo[2,1-f][1,2,4]triazin-4-amine]
1 to 5 µM | CC(=O)N1CC=C(c2cc3c(N[C@H](C)c4cc(N)cc(C(F)(F)F)c4)ncnn3c2)CC1 [Example 13, 1-[4-[4-[[(1R)-1-[3-amino-5-(trifluoromethyl)phenyl]ethyl]amino]pyrrolo[2,1-f][1,2,4]triazin-6-yl]-3,6-dihydro-2H-pyridin-1-yl]ethanone]
1 to 5 µM | C[C@@H](Nc1ncnn2cc(C3=CCNCC3)cc12)c1cccc(C(F)(F)F)c1 [Example 14]
1 to 5 µM | COc1nc(N[C@H](C)c2cccc(C(F)(F)F)c2)c2cc(C3=CCNCC3)cn2n1 [Example 21]
< 1 µM | C[C@@H](NC1=NC=NC2SC(C3(O)CCC(C(=O)N(C)C)CC3)=CC12)c1cc(N)cc(C(F)(F)F)c1 (stereo partly shown) [Example 23]

From US20230148450A9, “BICYCLIC HETEROARYL COMPOUNDS AND USES THEREOF” (Revolution Medicines, Inc., priority 2019, published 2023)
